Results: patent publication EP0598011B1, “ECDYSTEROID DEPENDENT REGULATION OF GENES IN MAMMALIAN CELLS” (GENENTECH, INC., priority 1991, dated 1993)

What was measured:
drosophila cell lines = conditions: cited from earlier work
GGEc = molecular target: T1, GGEc (Drosophila melanogaster, UniProt P34021); experiment: Induction of GRE reporter G4M-77CO by chimeric receptor GGEc in 293 cells; type: cell-based; conditions: GRE reporter G4M-77CO
T1 construct: expressed in transfected cells; host or cells: 293 cells
T1 sequence (P34021 329-878): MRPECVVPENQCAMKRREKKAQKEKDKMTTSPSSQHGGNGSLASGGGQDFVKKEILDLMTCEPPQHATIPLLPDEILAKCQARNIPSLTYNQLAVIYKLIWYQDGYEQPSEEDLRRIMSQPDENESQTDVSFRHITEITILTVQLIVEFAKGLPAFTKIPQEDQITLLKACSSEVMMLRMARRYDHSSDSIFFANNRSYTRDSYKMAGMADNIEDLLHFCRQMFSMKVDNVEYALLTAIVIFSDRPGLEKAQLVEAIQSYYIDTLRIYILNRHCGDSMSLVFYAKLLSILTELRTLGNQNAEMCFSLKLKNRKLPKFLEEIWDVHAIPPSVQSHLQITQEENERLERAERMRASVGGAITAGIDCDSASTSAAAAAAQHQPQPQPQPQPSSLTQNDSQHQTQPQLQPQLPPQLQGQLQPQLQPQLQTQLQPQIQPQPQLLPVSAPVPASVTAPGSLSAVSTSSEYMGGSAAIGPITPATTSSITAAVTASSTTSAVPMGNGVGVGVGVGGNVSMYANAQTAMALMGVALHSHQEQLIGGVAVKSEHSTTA
Excerpt: I choose to determine if the ligand-binding domain of DHR23a could be used to regulate the DNA-binding and transactivation domains of the mammalian glucocorticoid receptor for the following reasons. First, in contrast to DHR23α, high affinity DNA-binding sites for the GR have been identified (M. Beato, Cell 56, 335 [1989]) and reporter genes containing these sites are very strongly regulated. Thus, the sensitivity of our assays could be increased. Secondly, these chimeric receptors could be utilized to selectively regulate endogenous genes in mammalian cells in response to ecdysteroids. I constructed a chimeric gene, GGEc, in which the sequences encoding the ligand-binding domain of the GR were replaced with that of DHR23α (Fig. 4A). […] However, expression of the GRE-containing reporter gene was induced more than 700 fold by GGEc in muristerone-treated cells.

DHR23α = molecular target: T2, DHR23α (Drosophila melanogaster, UniProt P34021); experiment: DHR23α transactivation of EcRE (Ec4M-77CO) CAT reporter in transfected human 293 cells; type: cell-based; conditions: pRSV.DHR23α + pEc4M-77CO (EcRE) CAT reporter, ligand 1 µM, 48 hrs
T2 construct: To isolate the full-length DHR23α clones; expressed in transfected cells; host or cells: human 293 cells
T2 sequence (P34021 1-878): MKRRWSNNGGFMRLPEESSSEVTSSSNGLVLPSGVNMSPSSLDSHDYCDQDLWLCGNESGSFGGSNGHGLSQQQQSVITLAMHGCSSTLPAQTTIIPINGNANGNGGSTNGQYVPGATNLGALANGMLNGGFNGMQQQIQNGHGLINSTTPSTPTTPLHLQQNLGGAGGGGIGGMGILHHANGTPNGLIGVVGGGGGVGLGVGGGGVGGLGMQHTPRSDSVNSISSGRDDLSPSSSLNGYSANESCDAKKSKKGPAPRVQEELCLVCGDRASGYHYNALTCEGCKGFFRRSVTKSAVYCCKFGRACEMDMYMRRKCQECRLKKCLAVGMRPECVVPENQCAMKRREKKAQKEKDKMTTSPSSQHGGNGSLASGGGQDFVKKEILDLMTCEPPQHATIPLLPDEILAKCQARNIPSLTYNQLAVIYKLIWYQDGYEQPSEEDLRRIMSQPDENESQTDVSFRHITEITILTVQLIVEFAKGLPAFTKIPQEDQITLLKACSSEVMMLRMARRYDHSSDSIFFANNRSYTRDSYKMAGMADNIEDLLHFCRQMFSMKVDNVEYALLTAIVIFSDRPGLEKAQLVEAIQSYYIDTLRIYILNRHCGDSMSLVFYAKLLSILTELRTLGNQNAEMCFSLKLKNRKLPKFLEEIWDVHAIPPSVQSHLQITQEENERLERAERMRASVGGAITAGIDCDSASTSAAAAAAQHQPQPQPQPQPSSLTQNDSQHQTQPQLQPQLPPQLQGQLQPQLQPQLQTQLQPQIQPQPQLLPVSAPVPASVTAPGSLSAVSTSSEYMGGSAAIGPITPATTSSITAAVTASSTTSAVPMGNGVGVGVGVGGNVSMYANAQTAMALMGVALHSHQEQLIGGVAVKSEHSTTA
T2 sequence (P19793 1-462 partner): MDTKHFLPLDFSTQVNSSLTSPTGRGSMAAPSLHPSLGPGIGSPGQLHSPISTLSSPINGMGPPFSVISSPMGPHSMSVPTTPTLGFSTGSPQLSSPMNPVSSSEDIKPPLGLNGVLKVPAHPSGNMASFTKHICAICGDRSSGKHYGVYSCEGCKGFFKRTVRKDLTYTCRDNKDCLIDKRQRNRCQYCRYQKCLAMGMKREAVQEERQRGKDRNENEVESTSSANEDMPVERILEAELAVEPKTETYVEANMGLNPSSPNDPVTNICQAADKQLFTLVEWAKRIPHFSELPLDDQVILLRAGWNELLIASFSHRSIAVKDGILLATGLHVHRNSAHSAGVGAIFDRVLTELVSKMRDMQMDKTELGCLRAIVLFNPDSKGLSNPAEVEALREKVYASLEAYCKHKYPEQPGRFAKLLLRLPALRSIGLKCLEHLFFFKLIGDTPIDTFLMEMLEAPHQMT
Description: Figure. 2. […] Human 293 cells were cotransfected with 2.5 µg of the expression plasmid pRSV.DHR23α or the parental expression plasmid pRSV (Control) and 0.5 µgs of the reporter plasmid pEc4M-77CO (EcRE) or pG4M-77CO (GRE). As a control for transfection efficiency, 0.5 µgs of the control plasmid pRSV.hGH was included in the transfection mixture. After transfection, cells were treated without (-) or with alpha-ecdysone (alpha), 20-OH ecdysone (20-OH), polypodine B (ppB), ponasterone A (ponA) or muristeroine A (murA). CAT extracts were harvested 48 hrs after transfection and assayed. The values were normalized to the expression of hGH and the average values of three independent experiments are shown. The "fold induction" represents the level of expression of the reporter gene in cells incubated with hormone divided by the expression of that reporter gene in extracts from cells incubated in the absence of added ligand.
I determined whether DHR23α could function in mammalian cells treated with ecdysteroids to enhance the transcription of a reporter gene containing EcREs linked to the murine mammary tumor virus (MTV) promoter and chloramphenicol acetyltransferase (CAT) gene. Human 293 cells were cotransfected with an RSV-based expression vector that encodes DHR23a and the reporter gene Ec4M-77CO that contains 4 copies of an ecdysone response element (EcRE) from the Drosophila HSP27 promoter (G. Riddihough and H. R. B. Pelham, EMBO J. 6, 3729 [1987]) linked to an MTV promoter-CAT construct.
Human 293 cells were cotransfected with 2.5 µg of the expression plasmid pRSV.DHR23α or the parental expression plasmid pRSV (Control) and 0.5 µgs of the reporter plasmid pEc4M-77CO (EcRE) or pG4M-77CO (GRE). As a control for transfection efficiency, 0.5 µgs of the control plasmid pRSV.hGH was included in the transfection mixture. After transfection, cells were treated without (-) or with alpha-ecdysone (alpha), 20-OH ecdysone (20-OH), polypodine B (ppB), ponasterone A (ponA) or muristeroine A (murA). All candidate ligands were added at a concentration of 1 µM. CAT extracts were harvested 48 hrs after transfection, and assays were performed as described (D. R. Cavener, Nucl. Acids Res. 15, 1353-1361 [1987]). The values were normalized to the expression of hGH and the average values of three independent experiments are shown in Figure 2. The "fold induction" represents the level of expression of the reporter gene in cells incubated with hormone divided by the expression of that reporter gene in extracts from cells incubated in the absence of added ligand.
Cells were transfected with the DHR23α expression vector and Ec4M-77CO reporter gene and treated without (-) or with the following hormones (1 µM): muristerone A (mur A) dexamethasone (Dex) 17β-estradiol (E2), aldosterone (Aldo), corticosterone (Cort) hydroxycorticosterone (OH-Cort) thyroid hormone (T3), promegestone (Promeg) or 1,25-dihydroxy vitamin D3 (VD3). Reporter gene activity was determined as described above for Figure 2.

GGG = molecular target: T3, GGG (Rattus norvegicus, UniProt P06536); experiment: Induction of GRE reporter G4M-77CO by GGG (glucocorticoid receptor) in 293 cells; conditions: normalized to hGH, SD in parentheses, 2880 min
T3 sequence (P06536 1-795): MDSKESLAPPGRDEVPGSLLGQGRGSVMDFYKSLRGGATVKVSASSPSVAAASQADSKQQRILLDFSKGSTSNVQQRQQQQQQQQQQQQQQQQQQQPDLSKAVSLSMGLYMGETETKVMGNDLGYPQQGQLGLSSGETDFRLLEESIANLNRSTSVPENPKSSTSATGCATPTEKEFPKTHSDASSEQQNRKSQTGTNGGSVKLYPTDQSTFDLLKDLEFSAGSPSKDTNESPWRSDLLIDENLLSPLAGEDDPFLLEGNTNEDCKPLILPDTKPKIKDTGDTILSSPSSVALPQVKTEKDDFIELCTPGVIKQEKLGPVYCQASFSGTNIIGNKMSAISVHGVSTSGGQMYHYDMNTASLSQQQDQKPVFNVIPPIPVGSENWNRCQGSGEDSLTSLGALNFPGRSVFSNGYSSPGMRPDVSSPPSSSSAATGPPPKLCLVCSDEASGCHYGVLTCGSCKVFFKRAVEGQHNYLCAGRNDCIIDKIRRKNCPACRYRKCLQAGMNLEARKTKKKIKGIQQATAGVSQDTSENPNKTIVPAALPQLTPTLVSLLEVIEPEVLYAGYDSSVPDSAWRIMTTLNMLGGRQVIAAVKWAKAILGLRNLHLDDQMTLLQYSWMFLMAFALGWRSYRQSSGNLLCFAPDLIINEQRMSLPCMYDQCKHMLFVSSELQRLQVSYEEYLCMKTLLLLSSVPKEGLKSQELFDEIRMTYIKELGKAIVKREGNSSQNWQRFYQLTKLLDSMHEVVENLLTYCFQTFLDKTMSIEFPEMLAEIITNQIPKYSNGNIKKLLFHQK

| agonist for DHR23α in mammalian cells (expression of the reporter gene) (DHR23α; 1 µM) | SMILES | agonist activity in drosophila cell lines (drosophila cell lines) | relative efficacies of ecdysteroids as agonists for the chimeric receptor (GGEc) | agonist for DHR23α in mammalian cells (expression of the reporter gene) (DHR23α) | fold induction (GGG) |
| --- | --- | --- | --- | --- | --- |
| inactive | CC(C)(O)CC[C@@H](O)[C@](C)(O)[C@H]1CC[C@@]2(O)C3=CC(=O)[C@@H]4C[C@@H](O)[C@@H](O)C[C@]4(C)[C@H]3CC[C@]12C [20-OH ecdysone] | agonists | neither α-ecdysone, 20-OH ecdysone or polypodine B acted as agonists | Neither α-ecdysone, 20-OH ecdysone, nor polypodine B acted as agonists |  |
|  | C[C@@H]1C[C@H]2[C@@H]3CCC4=CC(=O)C=C[C@]4(C)[C@@]3(F)[C@@H](O)C[C@]2(C)[C@@]1(O)C(=O)CO [dexamethasone] |  |  |  | 347 fold |
|  | CC(C)(O)CC[C@@H](O)[C@](C)(O)[C@H]1CC[C@@]2(O)C3=CC(=O)[C@]4(O)C[C@@H](O)[C@@H](O)C[C@]4(C)[C@H]3CC[C@]12C [polypodine B] | agonists | neither α-ecdysone, 20-OH ecdysone or polypodine B acted as agonists | Neither α-ecdysone, 20-OH ecdysone, nor polypodine B acted as agonists |  |
|  | CC(C)CC[C@@H](O)[C@](C)(O)[C@H]1CC[C@@]2(O)C3=CC(=O)[C@@H]4C[C@@H](O)[C@@H](O)C[C@]4(C)[C@H]3CC[C@]12C [ponasterone A] |  | weak | weak agonist |  |
|  | C[C@H]([C@H](O)CCC(C)(C)O)[C@H]1CC[C@@]2(O)C3=CC(=O)[C@@H]4C[C@@H](O)[C@@H](O)C[C@]4(C)[C@H]3CC[C@]12C [α-ecdysone] |  | neither α-ecdysone, 20-OH ecdysone or polypodine B acted as agonists | Neither α-ecdysone, 20-OH ecdysone, nor polypodine B acted as agonists |  |
